Data on 16 compounds can be found in US10774083B2, “Heterocyclic amide compound” (TAKEDA PHARMACEUTICAL COMPANY LIMITED, priority 2016, dated 2020).

For assay [1], the target named is T1, human PRS protein (His-Avi-hEPRS (998-1512)) (Homo sapiens, UniProt P07814).
T1 construct: to construct His-Avi-hEPRS (998-1512) expression plasmid; His tag (N); Avi tag (N); TEV cleavage site (ENLYFQG, then S; inferred from the forward primer hEPRS-TEV-NheF) (N); made in house; host or cells: E. coli BL21(DE3)
T1 sequence (P07814 998-1512 limits assumed): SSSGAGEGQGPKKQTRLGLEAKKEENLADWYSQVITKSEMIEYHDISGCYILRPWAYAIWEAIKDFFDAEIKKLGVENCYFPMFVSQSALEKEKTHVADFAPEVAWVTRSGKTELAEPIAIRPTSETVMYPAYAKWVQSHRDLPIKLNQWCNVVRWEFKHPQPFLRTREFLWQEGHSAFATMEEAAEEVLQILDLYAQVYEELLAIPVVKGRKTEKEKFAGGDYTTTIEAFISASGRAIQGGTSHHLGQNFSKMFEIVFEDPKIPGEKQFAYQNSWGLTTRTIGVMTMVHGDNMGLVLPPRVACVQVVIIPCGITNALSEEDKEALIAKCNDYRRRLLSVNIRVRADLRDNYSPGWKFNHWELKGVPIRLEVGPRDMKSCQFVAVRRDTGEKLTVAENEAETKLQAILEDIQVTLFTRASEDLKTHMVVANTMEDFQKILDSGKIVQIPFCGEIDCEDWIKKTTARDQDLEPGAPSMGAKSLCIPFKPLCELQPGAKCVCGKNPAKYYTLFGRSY
As to the kind of experiment: PRS inhibitory activity ([32P]pyrophosphate exchange enzyme assay). In kind it is biochemical. The note with it: 300 nM test compound; for inhibition at 0.3 µM: read-out: inhibitory rate (%) of PRS; for inhibitory rate (%) of PRS: 0.3 µM. As for the experimental part: The PRS inhibitory activity of the compounds of the present invention was evaluated by the following method.
An expression plasmid of Catalytic Domain of human EPRS was obtained by PCR using human skeletal muscle cDNA Library (Takara Bio Inc.) as a template and 2 kinds of Primers 5′-[…]-3′ (hEPRS-TEV-NheF) (SEQ ID NO: 1) and 5′-[…]-3′ (hEPRS-St-Not-R) (SEQ ID NO: 2). PCR was performed using PrimeStar GXL DNA Polymerase (Takara Bio Inc.) and included (1) 98° C., 1 min, (2) 35 cycles of 98° C., 10 sec, 65° C., 10 sec, 72° C., 1 min, and (3) reaction at 72° C., 1 min. This was cleaved with Nhe I and Not I (Takara Bio Inc.) and inserted using Ligation High (TOYOBO CO., LTD.) into the Nhe I/Not I site of pET21a (Novagen) with His-Avitag inserted thereinto. This was introduced into ECOS JM109 (NIPPON GENE CO., LTD.) to construct His-Avi-hEPRS (998-1512) expression plasmid.
Recombinant human PRS protein was prepared by transforming the His-Avi-hEPRS (998-1512) expression plasmid prepared above into ECOS Competent E. coli BL21(DE3) (NIPPON GENE CO., LTD.). Escherichia coli obtained by transformation was inoculated into 300 mL of LB medium (1% peptone, 0.5% yeast extract, 0.5% sodium chloride, 0.01% ampicillin) and cultured at 30° C. for 16 hr. The obtained culture medium was transferred into a jar culture tank charged with 6 L of the main fermentation medium (0.3% potassium dihydrogen phosphate, 0.6% disodium hydrogen phosphate, 0.1% ammonium chloride, 0.05% sodium chloride, 0.024% magnesium sulfate, 0.02% NEWPOL LB-625, 1.5% sorbitol, 1.5% casamino acid, 0.5% yeast extract, 0.01% ampicillin) and culturing was started at 37° C., quantity of airflow 5 L/min, stirring rotating speed 400 rpm. At the time point when the turbidity of the culture medium reached about 550 Klett units, the culture temperature was lowered to 16° C., isopropyl-β-D-thiogalactopyranoside (IPTG) was added to the final concentration 0.1 mM, and culturing was performed for another 16 hr to induce expression of human PRS. After completion of culturing, the culture medium was centrifuged at 5,000 rpm for 10 min. The obtained human PRS expressing Escherichia coli was suspended in a buffer containing 50 mM Tris-HCl (pH 8.0), 150 mM NaCl, 1 mM DTT, 5 U/ml Benzonase, 20 mM Imidazole and sonicated using Sonifier (BRANSON). The homogenate was centrifuged (33,000×G, 60 min, Beckman Coulter), the obtained supernatant was subjected to adsorption by passage through Ni-NTA Superflow (QIAGEN) column equilibrated in advance with 50 mM Tris-HCl (pH 8.0), 300 mM NaCl, 1 mM DTT, and elution was performed with a buffer containing 50 mM Tris-HCl (pH 8.0), 300 mM NaCl, 1 mM DTT, 250 mM Imidazole. Furthermore, gel filtration was performed using Superdex200 pg column equilibrated in advance with a buffer containing 50 mM Tris-HCl (pH 8.0), 150 mM NaCl, 1 mM DTT, 10% glycerol to give purified human PRS protein. The protein concentration was measured using BCA Protein Assay Kit (PIERCE) and BSA as the standard.
A test compound was dissolved in 5 μL of an assay buffer (50 mM Tris-HCl (pH 7.5), 20 mM KCl, 1 mM DTT, 0.01% Tween 20) and incubated for 60 min with 5 μL of 40 nM human PRS protein dissolved in the assay buffer containing 40 mM MgCl2. An enzyme reaction of the human PRS protein was started by adding 10 μL of a substrate solution containing 300 μM ATP, 160 μM L-Proline, 400 μM pyrophosphate, [^32P]pyrophosphate (PerkinElmer) prepared to 1 MBq/mL. After incubation at room temperature for 30 min, the reaction was discontinued by adding 50 μL of discontinuation/washing solution (1M HCl, 200 mM sodium pyrophosphate) to the reaction mixture. The reaction solution was transferred to a filter plate (Merck Millipore, Billerica, Mass.) previously added with 200 μL of charcoal solution (0.5% HCl solution containing 10% charcoal (w/v)). […]

In assay [2] the test system is human ovarian cancer cells A2780. Kind of assay: proliferation inhibitory activity against human ovarian cancer cell A2780 (CellTiter-Glo). The assay is classed as cell-based. The note with it: A2780, 72 h, 1 μM test compound, 3 days of culture, read-out: proliferation inhibitory rate (%) of A2780 cells. As for the experimental part: The proliferation inhibitory activity of the compound of the present invention against human ovarian cancer cell A2780 was evaluated by the following method.
Human ovarian cancer cells A2780 were seeded in a 384 well culture plate at 1000 cells in 30 μL of medium per well by using RPMI-1640 medium (Wako Pure Chemical Industries, Ltd.) containing 10% fetal bovine serum and penicillin/streptomycin. The next day, 10 μL of RPMI-1640 medium containing the test compound was added to the cells. After 3 days of culture, 20 μL of CellTiter-Glo Luminescent Cell Viability Assay solution (Promega) was added. The luminescence signal was measured using EnVision (PerkinElmer) and the inhibitory rate (%) of the test compound was calculated with a well free of seeding of cell as 100% inhibition.

Regarding `Cn1cc2c(CNC(=O)c3ncnc4nc(C5CCCC5)[nH]c34)cccc2n1` [Example 10, 8-cyclopentyl-N-((2-methyl-2H-indazol-4-yl)methyl)-7H-purine-6-carboxamide], the inhibition at 0.3 µM in assay [1] is 97%. For the same compound, the inhibition at 1 µM in assay [2] is 55%. In the same order, the values of `Cn1cc(-c2cc(F)c(F)c(CNC(=O)c3nccc4nc(C5CCCC5)[nH]c34)c2)cn1` [Example 90, 2-cyclopentyl-N-(2,3-difluoro-5-(1-methyl-1H-pyrazol-4-yl)benzyl)-3H-imidazo[4,5-c]pyridine-4-carboxamide] are 101% and 96%.

Consider `Cn1cc(-c2cc(F)cc(CNC(=O)c3nccc4nc(CC5CCCC5)[nH]c34)c2)cn1` [Example 104, 2-(cyclopentylmethyl)-N-(3-fluoro-5-(1-methyl-1H-pyrazol-4-yl)benzyl)-3H-imidazo[4,5-c]pyridine-4-carboxamide], for which the inhibition at 0.3 µM in assay [1] worked out at 98%. Also, in assay [2], the inhibition at 1 µM is 68%.

Turning to `Cc1cc(N2CC[C@@](C#N)(C3CC3)C2=O)cc(C(=O)NCc2cc(F)cc(-c3cncnc3)c2)n1` [Example 205, 4-((3S)-3-cyano-3-cyclopropyl-2-oxopyrrolidin-1-yl)-N-(3-fluoro-5-(pyrimidin-5-yl)benzyl)-6-methylpyridine-2-carboxamide], the inhibition at 0.3 µM in assay [1] stood at 86%. For the compound `Cn1cc(-c2cc(F)cc(CNC(=O)c3ncnc4nc(C5COCCO5)[nH]c34)c2)cn1` (stereo not shown) [Example 33, 8-(1,4-dioxan-2-yl)-N-(3-fluoro-5-(1-methyl-1H-pyrazol-4-yl)benzyl)-7H-purine-6-carboxamide], the “inhibitory rate (%) of PRS” value in assay [1] is 99%.

For the compound `Cn1ncc2cccc(CNC(=O)c3ncnc4nc(C5CCCC5)n(C)c34)c21` [Example 21, 8-cyclopentyl-7-methyl-N-((1-methyl-1H-indazol-7-yl)methyl)-7H-purine-6-carboxamide], the inhibition at 0.3 µM in assay [1] was 92%. Take `Cc1cc(N2CCC(C#N)(CC3CC3)C2=O)cc(C(=O)NCc2cc(F)cc(-c3cnn(C)c3)c2)n1` (stereo not shown) [Example 230, 4-(3-cyano-3-(cyclopropylmethyl)-2-oxopyrrolidin-1-yl)-N-(3-fluoro-5-(1-methyl-1H-pyrazol-4-yl)benzyl)-6-methylpyridine-2-carboxamide]: the inhibition at 0.3 µM in assay [1] stood at 91%. Still for that read-out and setting: the figure for `COc1cc(N2CC[C@@](C#N)(C3CC3)C2=O)cc(C(=O)NCc2cc(F)cc(-c3cnn(C)c3)c2)n1` [Example 224, 4-((3S)-3-cyano-3-cyclopropyl-2-oxopyrrolidin-1-yl)-N-(3-fluoro-5-(1-methyl-1H-pyrazol-4-yl)benzyl)-6-methoxypyridine-2-carboxamide] is 74%; for `Cc1nc(C(=O)NCc2cc(F)cc(-c3cnn(C)c3)c2)cc(N2CC[C@@](C#N)(C3CC3)C2=O)n1` [Example 237, 6-((3S)-3-cyano-3-cyclopropyl-2-oxopyrrolidin-1-yl)-N-(3-fluoro-5-(1-methyl-1H-pyrazol-4-yl)benzyl)-2-methylpyrimidine-4-carboxamide] it is 74%. In the case of `COc1c(F)cc(-c2cnn(C)c2)cc1CNC(=O)c1ncnc2nc(C3CCCC3)n(C)c12` [Example 6, 8-cyclopentyl-N-(3-fluoro-2-methoxy-5-(1-methyl-1H-pyrazol-4-yl)benzyl)-7-methyl-7H-purine-6-carboxamide], the inhibition at 0.3 µM in assay [1] amounted to 79%. With `CC(C)c1nc2ccnc(C(=O)NCc3cc(F)cc(-c4cnn(C)c4)c3)c2[nH]1` [Example 99, N-(3-fluoro-5-(1-methyl-1H-pyrazol-4-yl)benzyl)-2-isopropyl-3H-imidazo[4,5-c]pyridine-4-carboxamide], the inhibition at 0.3 µM in assay [1] was 96%.

`Cn1cc(-c2cc(F)cc(CNC(=O)c3cc(N4CC[C@@](C#N)(C5CC5)C4=O)ccn3)c2)ccc1=O` [Example 150, 4-((3S)-3-cyano-3-cyclopropyl-2-oxopyrrolidin-1-yl)-N-(3-fluoro-5-(1-methyl-6-oxo-1,6-dihydropyridin-3-yl)benzyl)pyridine-2-carboxamide]: the inhibition at 0.3 µM in assay [1] worked out at 87%. In the case of `Cc1nc(C(=O)NCc2cc(F)cc(-c3cnn(C)c3)c2)c2[nH]c(C3CCCC3)nc2n1` [Example 13, 8-cyclopentyl-N-(3-fluoro-5-(1-methyl-1H-pyrazol-4-yl)benzyl)-2-methyl-7H-purine-6-carboxamide], the inhibition at 0.3 µM in assay [1] was found to be 86%. For `Cn1cc(-c2cc(F)cc(CNC(=O)c3ncnc4nc(C5COCCO5)[nH]c34)c2)cn1` (stereo not shown) [Example 34, 8-(1,4-dioxan-2-yl)-N-(3-fluoro-5-(1-methyl-1H-pyrazol-4-yl)benzyl)-7H-purine-6-carboxamide], the “inhibitory rate (%) of PRS” value in assay [1] was 101%. On to `Cc1cc(N2CCC(CO)(C3CC3)C2=O)cc(C(=O)NCc2cc(F)cc(-c3cnn(C)c3)c2)n1` (stereo not shown) [Example 235, 4-(3-cyclopropyl-3-(hydroxymethyl)-2-oxopyrrolidin-1-yl)-N-(3-fluoro-5-(1-methyl-1H-pyrazol-4-yl)benzyl)-6-methylpyridine-2-carboxamide], for which the inhibition at 0.3 µM in assay [1] amounted to 69%. Still for that read-out and setting: the figure for `Cc1cc(N2CCN(C(C)C)C2=O)cc(C(=O)NCc2cc(F)cc(-c3cnn(C)c3)c2)n1` [Example 226, N-(3-fluoro-5-(1-methyl-1H-pyrazol-4-yl)benzyl)-4-(3-isopropyl-2-oxoimidazolidin-1-yl)-6-methylpyridine-2-carboxamide] is 91%.
